Experiment [1] deals with T1, von Hippel-Lindau disease tumor suppressor/Son of sevenless homolog 1 (Homo sapiens, UniProt Q07889+P40337). As to the kind of experiment: Protac activity at VHL/SOS1 in human NCI-H358 cells assessed as SOS1 protein degradation at 0.1 uM incubated for 24 hr by Western blot analysis relative to control. In kind it is cell-based.
Target sequence in this assay (P40337 whole entry, looked up): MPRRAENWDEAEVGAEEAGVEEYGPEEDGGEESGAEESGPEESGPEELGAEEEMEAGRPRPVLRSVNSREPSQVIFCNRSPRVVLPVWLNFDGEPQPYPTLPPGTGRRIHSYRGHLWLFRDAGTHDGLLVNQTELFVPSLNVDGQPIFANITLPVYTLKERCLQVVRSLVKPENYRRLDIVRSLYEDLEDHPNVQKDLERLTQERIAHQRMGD
Target sequence in this assay (Q07889 whole entry, looked up): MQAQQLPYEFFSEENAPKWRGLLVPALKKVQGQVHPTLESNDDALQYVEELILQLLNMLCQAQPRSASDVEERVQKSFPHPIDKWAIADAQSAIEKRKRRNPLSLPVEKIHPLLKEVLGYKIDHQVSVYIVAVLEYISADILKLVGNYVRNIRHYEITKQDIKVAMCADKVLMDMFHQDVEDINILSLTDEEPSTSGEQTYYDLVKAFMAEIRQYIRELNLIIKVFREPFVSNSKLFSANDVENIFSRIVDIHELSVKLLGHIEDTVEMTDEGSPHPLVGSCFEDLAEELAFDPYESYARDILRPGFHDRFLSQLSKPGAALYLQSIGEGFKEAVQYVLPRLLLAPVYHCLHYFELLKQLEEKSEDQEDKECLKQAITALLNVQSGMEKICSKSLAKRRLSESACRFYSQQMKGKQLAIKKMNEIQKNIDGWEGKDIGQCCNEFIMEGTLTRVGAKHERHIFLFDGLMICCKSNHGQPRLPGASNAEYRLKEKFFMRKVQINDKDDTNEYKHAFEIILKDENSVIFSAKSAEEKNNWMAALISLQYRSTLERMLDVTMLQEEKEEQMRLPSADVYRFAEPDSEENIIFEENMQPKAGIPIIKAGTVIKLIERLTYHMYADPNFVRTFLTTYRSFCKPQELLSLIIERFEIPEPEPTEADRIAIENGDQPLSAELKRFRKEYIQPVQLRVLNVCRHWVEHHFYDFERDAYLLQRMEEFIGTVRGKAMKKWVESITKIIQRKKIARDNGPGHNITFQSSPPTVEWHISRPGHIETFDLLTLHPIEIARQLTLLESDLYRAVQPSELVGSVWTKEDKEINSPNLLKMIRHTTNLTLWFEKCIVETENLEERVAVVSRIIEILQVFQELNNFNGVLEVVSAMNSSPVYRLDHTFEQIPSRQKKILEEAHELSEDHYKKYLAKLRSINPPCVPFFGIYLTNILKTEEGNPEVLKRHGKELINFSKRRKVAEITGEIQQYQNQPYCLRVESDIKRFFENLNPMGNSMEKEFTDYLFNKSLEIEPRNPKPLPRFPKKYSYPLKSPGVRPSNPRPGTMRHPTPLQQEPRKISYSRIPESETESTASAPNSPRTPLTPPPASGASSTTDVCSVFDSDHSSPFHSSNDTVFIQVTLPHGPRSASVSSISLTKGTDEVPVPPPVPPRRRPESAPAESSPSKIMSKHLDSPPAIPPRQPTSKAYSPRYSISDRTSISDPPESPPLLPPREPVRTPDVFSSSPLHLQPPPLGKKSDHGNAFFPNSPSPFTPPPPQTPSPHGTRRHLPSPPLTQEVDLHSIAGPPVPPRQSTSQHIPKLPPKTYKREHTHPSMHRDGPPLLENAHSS
The target of experiment [2] is T1, von Hippel-Lindau disease tumor suppressor/Son of sevenless homolog 1. Nature of the experiment: Protac activity at VHL/SOS1 in human NCI-H358 cells assessed as SOS1 protein degradation at 1 uM incubated for 24 hr by Western blot analysis relative to control. In kind it is cell-based.
Target sequence in this assay (P40337 whole entry, looked up): as the sequence (P40337 whole entry, looked up) above
Target sequence in this assay (Q07889 whole entry, looked up): as the sequence (Q07889 whole entry, looked up) above
Another experiment relates to NCI-H358. Nature of the experiment: Effect of compound on human NCI-H358 cells assessed as increase in phophorylated ERK level incubated for 24 hr by Western blot analysis. In kind it is functional, cell-based.
Experiment [3] deals with T1, von Hippel-Lindau disease tumor suppressor/Son of sevenless homolog 1. As to the kind of experiment: Protac activity at VHL/SOS1 in human NCI-H358 cells assessed as SOS1 protein degradation incubated for 24 hr by Western blot analysis. In kind it is cell-based.
Target sequence in this assay (Q07889 whole entry): as the sequence (Q07889 whole entry, looked up) above
Target sequence in this assay (P40337 whole entry): as the sequence (P40337 whole entry, looked up) above

SMILES strings stand for the structures. Calls of active or inactive are those of the source. No cut-off for these calls is given here.

Turning to `Cc1cc(Cn2c(N3CC4(CNC4)C3)nc3c(N4CCN(CCCC(=O)NCCCC(=O)N[C@H](C(=O)N5C[C@H](O)C[C@H]5C(=O)N[C@@H](C)c5ccc(-c6scnc6C)cc5)C(C)(C)C)CC4)cc(Cl)cc32)cc(C)c1F`, the values for the Activity in experiment [1] and in experiment [2] were 8% and 12.7%, respectively.
For `Cc1cc(Cn2c(N3CC4(CNC4)C3)nc3c(N4CCN(CC5CCN(CCCC(=O)N[C@H](C(=O)N6C[C@H](O)C[C@H]6C(=O)N[C@@H](C)c6ccc(-c7scnc7C)cc6)C(C)(C)C)CC5)CC4)cc(Cl)cc32)cc(C)c1F`, in that order: 7% and 11.2%.
For `Cc1cc(Cn2c(N3CC4(CNC4)C3)nc3c(N4CCN(C)CC4)cc(Cl)cc32)cc(C)c1F`, in the experiment with NCI-H358, the result was Active.
With `Cc1cc(Cn2c(N3CC4(CNC4)C3)nc3c(N4CCN(CCCCCCCC(=O)N[C@H](C(=O)N5C[C@H](O)C[C@H]5C(=O)N[C@@H](C)c5ccc(-c6scnc6C)cc5)C(C)(C)C)CC4)cc(Cl)cc32)cc(C)c1F`, the Activity in experiment [1] is 27.6%; in experiment [2], 80.9%. Also, the DC50 (commonly the concentration giving 50% degradation) in experiment [3] was found to be 150 nM.
On to `Cc1cc(Cn2c(N3CC4(CNC4)C3)nc3c(N4CCN(CCOCCOCCOCCC(=O)N[C@H](C(=O)N5C[C@H](O)C[C@H]5C(=O)N[C@@H](C)c5ccc(-c6scnc6C)cc5)C(C)(C)C)CC4)cc(Cl)cc32)cc(C)c1F`, for which the results for the Activity in experiment [1] and in experiment [2] were 15.4% and 36.6%, respectively.
On to `Cc1cc(Cn2c(N3CC4(CNC4)C3)nc3c(N4CCN(CC5CCN(CCC(=O)N[C@H](C(=O)N6C[C@H](O)C[C@H]6C(=O)N[C@@H](C)c6ccc(-c7scnc7C)cc6)C(C)(C)C)CC5)CC4)cc(Cl)cc32)cc(C)c1F`, for which the Activity came to 18.1% in experiment [1] and 9.4% in experiment [2].
Turning to `Cc1cc(Cn2c(N3CC4(CNC4)C3)nc3c(N4CCN(CCCCCCCCCC(=O)N[C@H](C(=O)N5C[C@H](O)C[C@H]5C(=O)N[C@@H](C)c5ccc(-c6scnc6C)cc5)C(C)(C)C)CC4)cc(Cl)cc32)cc(C)c1F`, the values for the Activity in experiment [1] and in experiment [2] were 38.5% and 82%, respectively. Further, the DC50 in experiment [3] is 182 nM.
`Cc1cc(Cn2c(N3CC4(CNC4)C3)nc3c(N4CCN(CCCCC(=O)NCCCC(=O)N[C@H](C(=O)N5C[C@H](O)C[C@H]5C(=O)N[C@@H](C)c5ccc(-c6scnc6C)cc5)C(C)(C)C)CC4)cc(Cl)cc32)cc(C)c1F`: the Activity came out at 3.2% in experiment [1] and 0% in experiment [2].
As to `Cc1cc(Cn2c(N3CC4(CNC4)C3)nc3c(N4CCN(CCOCCOCC(=O)N[C@H](C(=O)N5C[C@H](O)C[C@H]5C(=O)N[C@@H](C)c5ccc(-c6scnc6C)cc5)C(C)(C)C)CC4)cc(Cl)cc32)cc(C)c1F`, the figures for the Activity in experiment [1] and in experiment [2] were 23.3% and 24.4%, respectively.
For `Cc1cc(Cn2c(N3CC4(CNC4)C3)nc3c(N4CCN(CC5CCN(CC(=O)N[C@H](C(=O)N6C[C@H](O)C[C@H]6C(=O)N[C@@H](C)c6ccc(-c7scnc7C)cc6)C(C)(C)C)CC5)CC4)cc(Cl)cc32)cc(C)c1F` the same measures were 13% and 43.3%.
Turning to `Cc1cc(Cn2c(N3CC4(CNC4)C3)nc3c(N4CCN(CCCCCCCCC(=O)N[C@H](C(=O)N5C[C@@H](O)C[C@H]5C(=O)N[C@@H](C)c5ccc(-c6scnc6C)cc5)C(C)(C)C)CC4)cc(Cl)cc32)cc(C)c1F`, in the experiment on NCI-H358, the result was Active.
For the compound `Cc1cc(Cn2c(N3CC4(CNC4)C3)nc3c(N4CCN(CCCCCCC(=O)N[C@H](C(=O)N5C[C@H](O)C[C@H]5C(=O)N[C@@H](C)c5ccc(-c6scnc6C)cc5)C(C)(C)C)CC4)cc(Cl)cc32)cc(C)c1F`, the Activity came to 30.7% in experiment [1] and 79.9% in experiment [2]. Moreover, the half-maximal degradation concentration (DC50) in experiment [3] is 216 nM.
Consider `Cc1cc(Cn2c(N3CC4(CNC4)C3)nc3c(N4CCN(CCCCCCCCCCC(=O)N[C@H](C(=O)N5C[C@H](O)C[C@H]5C(=O)N[C@@H](C)c5ccc(-c6scnc6C)cc5)C(C)(C)C)CC4)cc(Cl)cc32)cc(C)c1F`, for which the Activity turned out to be 31.7% in experiment [1] and 63.2% in experiment [2].
For `Cc1cc(Cn2c(N3CC4(CNC4)C3)nc3c(N4CCN(CCCCCCCCCCCC(=O)N[C@H](C(=O)N5C[C@H](O)C[C@H]5C(=O)N[C@@H](C)c5ccc(-c6scnc6C)cc5)C(C)(C)C)CC4)cc(Cl)cc32)cc(C)c1F` the same measures were 33% and 49%.
For `Cc1cc(Cn2c(N3CC4(CNC4)C3)nc3c(N4CCN(CCOCCOCCC(=O)N[C@H](C(=O)N5C[C@H](O)C[C@H]5C(=O)N[C@@H](C)c5ccc(-c6scnc6C)cc5)C(C)(C)C)CC4)cc(Cl)cc32)cc(C)c1F` the same measures were 4.4% and 14%.
For `Cc1cc(Cn2c(N3CC4(CNC4)C3)nc3c(N4CCN(CCCCCC(=O)N[C@H](C(=O)N5C[C@H](O)C[C@H]5C(=O)N[C@@H](C)c5ccc(-c6scnc6C)cc5)C(C)(C)C)CC4)cc(Cl)cc32)cc(C)c1F`, in that order: 5.8% and 30.4%.
Turning to `Cc1cc(Cn2c(N3CC4(CNC4)C3)nc3c(N4CCN(CCC(=O)NCCCC(=O)N[C@H](C(=O)N5C[C@H](O)C[C@H]5C(=O)N[C@@H](C)c5ccc(-c6scnc6C)cc5)C(C)(C)C)CC4)cc(Cl)cc32)cc(C)c1F`, the Activity stood at 0% in experiment [1] and 18.3% in experiment [2].
